Format in all cases: in vivo
The nature of data set [1]: Quantification of BHB and lactate in rat serum after oral administration (LC-MS/MS). The following applies: compared to baseline (internal control), sampling until 180 minutes. The method, then: (§1) The diLaKe ester (formula II) is diluted in physiological saline solution (0.9% NaCl) and administered as a single bolus of 2 mL, per oral dose. The dose of 4500 mg/kg is based on a previous pilot series. Placebo animals receive a single bolus of 2 mL physiological saline solution (0.9% NaCl).
Male Sprague Dawley rats are kept for acclimatization at a constant temperature of 23° C., with a 12 h light-dark cycle and with unlimited access to food and water. All animal handling is in accordance with national guidelines in Denmark and the Guide for the Care and Use of Laboratory Animals^1 and all experiments conformed to Danish Law (Act. No. 1306 of 23 Nov. 2007).
The rats are randomly selected to receive either diLaKe or placebo.
Rats are anaesthetised in an induction chamber with 8% Sevoflurane (Sevorane®, AbbVIE A/S, Copenhagen, Denmark) mixed with oxygen saturated atmospheric air (flow: 2.0 L/min).
Upon achieved anaesthesia, the rats are intubated and connected to a mechanical ventilator (Ugo Basile 7025 rodent ventilator, Comerio, Varese, Italy) with an adjusted flow of 1.0 L/min with 3.5% Sevoflurane. Body temperature is kept at a constant 37° C.±1° C. with a temperature probe (UNO, Zevenaar, Holland). A PTFE coated flexible orogastric tube (Fuchigami, Japan) is placed and the rat is left for stabilization for 15 minutes.
After stabilization a baseline blood sample is collected from the rat tail vein before administration of diLaKe or placebo.
(§2) Following the baseline blood sample, a bolus of diLaKe solution or placebo is administered via the orogastric tube to the animals. […] Serum is collected and stored at −80° C. for further analysis.
The concentration of BHB and lactate will be determined in the blood samples isolated from the rats according to example 3. Rat serum isolated every 15 minutes for a 2 hours are analyzed. The quantification is done on LC-MS/MS using isotopically labeled internal standards (7).
The LaKe ester (formula XXII and XXIII) was diluted in physiological saline solution (0.9% NaCl) and administered as a single bolus of 2 mL, per oral dose. The dose of 4500 mg/kg was based on a previous pilot series (data not shown).
Male Sprague Dawley rats (300-350 g, Taconic, Ry, Denmark) were kept for acclimatization at a constant temperature of 23° C., with a 12 h light-dark cycle and with unlimited access to food and water. […]
Based on own experience and reports by other research groups, a sample size of n=8 was considered adequate to identify a treatment effect. All results are expressed as mean±SD unless otherwise stated. Differences in concentrations were analysed using two-way ANOVA with Bonferroni post hoc correction. […]

The subject of a further data set is free fatty acids (FFA). The experiment in a line: Non-esterified free fatty acids in rat serum after oral administration (NEFA-HR (2) kit). To be noted: rats, compared to baseline (internal control), sampling until 180 minutes. The method, then:
as §1, §2
The concentration of free-fatty acids (FFA) is determined in the blood samples isolated from the rats according to example 3. […]
Concentrations of non-esterified free fatty acids (NEFA) are measured using a NEFA-HR (2) kit (Wako, Chemicals Gmbh). Absorbance is measured by spectrometry (PHERAstar FS, BMG LABTECH, Ortenberg, Germany). […]
The concentration of free-fatty acids (FFA) was determined in the blood samples isolated from the rats according to example 4. […]
Concentrations of non-esterified free fatty acids (NEFA) were measured using a NEFA-HR (2) kit (Wako, Chemicals Gmbh). Absorbance was measured by spectrometry (PHERAstar FS, BMG LABTECH, Ortenberg, Germany).
The concentration of free-fatty acids (FFA) was determined in the blood samples isolated from the rats according to example 4, with the difference that KeLa (formula XXIV and XXV) was used. […]

For data set [2], the system named is N-lactoyl-phenylalanine (Lac-Phe). Kind of data set: Quantification of N-lactoyl-phenylalanine (Lac-Phe) in rat serum after oral administration (LC-MS/MS). The following applies: compared to baseline (internal control). The method, then:
As provided in example 21 with the difference that N-lactoyl-phenylalanine (Lac-Phe) was quantified using LC-MS/MS analyses.
LC-MS/MS analyses were carried out as follows: Forty μL rat plasma was diluted with 100 μL water in a 2 mL tube, added 115 μL methanol (Merck hypergrade) and 420 μL acetonitrile (Merck hypergrade), vortex mixed, incubated for 5 min at room temperature, and then centrifuged at 10,000×g for 5 min. Five hundred microliter supernatant was transferred to a 96-well plate (Eppendorf 1 mL deepwell), evaporated to dryness under a nitrogen gas flow at 30° C., and then reconstituted in 100 μL water with 0.1% formic acid. […]
The sample was introduced to the mass spectrometer through electrospray ionization in the negative mode with a capillary voltage of 2.2 kV and the source and desolvation temperatures were 150 and 500° C., and the nitrogen gas flows were 50 L/h (cone) and 800 L/h (desolvation). The analytes were detected in the multiple reaction monitoring mode with the following transitions (m/z) and cone voltage/collision energies (CV/CE), L-Lac-Phe (quantification ion m/z: 236.2>88.1, CV/CE: 25V/15 eV and qualifier ion m/z: 236.2>147.1, CV/CE: 25V/15 eV). […]

Experimental findings from US20250304523A1, “COMBINED LACTATE AND KETONE BODY ESTERS FOR MEDICAL AND NUTRITIONAL USE” (Aarhus Universitet, priority 2022, published 2025) are described below.

Take `C[C@H](CCOC(=O)[C@H](C)O)OC(=O)[C@H](C)O` [diLaKe, (R)-butane-1,3-diyl (2S,2'S)-bis(2-hydroxypropanoate)]: in data set [1] (rats), the “Serum levels of BHB” value was “increase in serum levels” and the “Serum levels of lactate” value is “increase in serum levels”. Further, the “FFA-levels in rat serum” value in the data set on free fatty acids (FFA) was “decrease in FFA-levels”. In addition, the “Serum concentration of Lac-Phe” value in data set [2] (rats, sampling until 180 minutes) was “increased serum concentration”.

`CC(=O)C(=O)OCC[C@@H](C)OC(=O)C(C)=O` [diPyKe, (R)-butane-1,3-diyl bis(2-oxopropanoate)]: in data set [1] (single rat), the “Serum levels of BHB” value is on record as “increase in serum levels” and the “Serum levels of lactate” value is reported as “increase in serum levels”. In data set [2] (single rat), the “Serum concentration of Lac-Phe” value is listed as “increased serum concentration”.
